We go through eleven compounds from ChEMBL document CHEMBL1122188, “A quantitative structure-activity relationship study of the inhibitory action of a series of enkephalin-like peptides in the guinea pig ileum and mouse vas deferens bioassays” (J Med Chem, 1982).

Non-standard residues stand in square brackets, D forms with d. Residues, ends and D or L forms follow the SMILES beside them. Cha = N[C@@H](CC1CCCCC1)C(=O)O

Holding throughout (settings): read-out: Log 1/IC50 (converted)
Experiment [1] has as its target Delta-type opioid receptor (Mus musculus, UniProt P32300). Briefly: (§1) Inhibitory activity contractions of electrically stimulated mouse vas deferens was determined. The experiment is classed as functional, tissue-based.
For experiment [2], the species on record is Cavia porcellus. Briefly: Inhibitory activity for contractions of electrically stimulated guinea pig ileum was determined. The class given is functional, organism-based.
The species entered for experiment [3] is Mus musculus. The description is as §1. The experiment is classed as functional, organism-based.

Delta-type opioid receptor, sequence (P32300 whole entry): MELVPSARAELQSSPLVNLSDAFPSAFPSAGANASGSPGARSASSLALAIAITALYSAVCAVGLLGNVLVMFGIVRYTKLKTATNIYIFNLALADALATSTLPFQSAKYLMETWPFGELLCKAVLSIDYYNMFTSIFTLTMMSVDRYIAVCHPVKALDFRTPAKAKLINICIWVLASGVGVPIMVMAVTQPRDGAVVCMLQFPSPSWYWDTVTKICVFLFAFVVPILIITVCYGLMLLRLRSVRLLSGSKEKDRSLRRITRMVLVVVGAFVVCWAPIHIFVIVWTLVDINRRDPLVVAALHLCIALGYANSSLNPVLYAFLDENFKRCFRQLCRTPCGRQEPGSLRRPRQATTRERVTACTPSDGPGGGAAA

On to `COc1ccc(C[C@H](N)C(=O)N[C@@H](C)C(=O)NCC(=O)N[C@@H](Cc2ccc([N+](=O)[O-])cc2)C(=O)N[C@@H](CCSC)C(N)=O)cc1`, for which the IC50 in experiment [1] was 3.16 nM; in experiment [2] it was 2.29 nM. With `C[C@H](NC(=O)[C@@H](N)Cc1ccc(O)cc1)C(=O)NCC(=O)N[C@@H](Cc1ccc([N+](=O)[O-])cc1)C(=O)N[C@@H](CCC(C)(C)C)C(N)=O`, the IC50 in experiment [2] is 1.91 nM. Still for that read-out and setting: the result for `CSCC[C@H](NC(=O)[C@H](Cc1ccccc1)NC(=O)CNC(=O)[C@H](C)NC(=O)[C@@H](N)Cc1ccc(O)cc1)C(N)=O` reads 11.5 nM.

On to `C[C@H](NC(=O)[C@@H](N)Cc1ccc(O)cc1)C(=O)NCC(=O)N[C@@H](Cc1ccccc1)C(=O)N[C@@H](CC12CC3CC(CC(C3)C1)C2)C(N)=O` (HELM PEPTIDE1{Y.A.G.F.[O=C([C@H](CC12CC3CC(CC(C3)C1)C2)N[*:1])[*:2]].[am]}$$$$V2.0), for which the IC50 in experiment [1] was 50.1 nM; in experiment [2] it was 6.03 nM. On to `CC(C)C[C@H](NC(=O)[C@H](Cc1ccc([N+](=O)[O-])cc1)NC(=O)CNC(=O)[C@H](C)NC(=O)[C@@H](N)Cc1ccc(O)cc1)C(N)=O`, for which the IC50 in experiment [2] was 3.16 nM. As to `C[C@H](NC(=O)[C@@H](N)Cc1ccc(O)cc1)C(=O)NCC(=O)N[C@@H](Cc1ccc([N+](=O)[O-])cc1)C(=O)N[C@@H](CC12CC3CC(CC(C3)C1)C2)C(N)=O`, the IC50 in experiment [1] is 20.4 nM; in experiment [2], 3.8 nM. Take `C[C@H](NC(=O)[C@@H](N)Cc1ccc(O)cc1)C(=O)NCC(=O)N[C@@H](Cc1ccccc1)C(=O)N[C@H](C(N)=O)C(C)(C)C` (HELM PEPTIDE1{Y.A.G.F.[CC(C)(C)[C@H](N[*:1])C(=O)[*:2]].[am]}$$$$V2.0): the IC50 is 9.77 nM in experiment [1] and 11.7 nM in experiment [2]. On to `CC(C)C[C@H](NC(=O)[C@H](CC1CCCCC1)NC(=O)CNC(=O)[C@H](C)NC(=O)[C@@H](N)Cc1ccc(O)cc1)C(N)=O` (HELM PEPTIDE1{Y.A.G.[Cha].L.[am]}$$$$V2.0), for which the IC50 in experiment [2] was 91.2 nM. `COc1ccc(C[C@H](N)C(=O)N[C@@H](C)C(=O)NCC(=O)N[C@@H](CC2CCCCC2)C(=O)N[C@@H](CCSC)C(N)=O)cc1` (H-Y(Me)AG[Cha]M-NH2): the IC50 in experiment [2] is 72.4 nM.

With `CC(C)C[C@H](NC(=O)[C@H](Cc1ccccc1)NC(=O)CNC(=O)[C@H](C)NC(=O)[C@@H](N)Cc1ccc(O)cc1)C(N)=O`, the values for the IC50 in experiment [3] and in experiment [2] were 9.55 nM and 11.2 nM, respectively.

Take `CC(C)C[C@H](NC(=O)[C@H](CC12CC3CC(CC(C3)C1)C2)NC(=O)CNC(=O)[C@H](C)NC(=O)[C@@H](N)Cc1ccc(O)cc1)C(N)=O` (HELM PEPTIDE1{Y.A.G.[O=C([C@H](CC12CC3CC(CC(C3)C1)C2)N[*:1])[*:2]].L.[am]}$$$$V2.0): the IC50 in experiment [1] is 2950 nM; in experiment [2] it was 1000 nM.
